Measured values as given in ChEMBL document CHEMBL1201862, “PubChem BioAssay data set” (2004).
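In this assay, cells in 96-well plates receive the compound at five concentrations for 48 hours. Endpoints are linearly interpolated between the surrounding concentrations. GI50 marks 50% less growth.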 Calls of active or inactive are those of the source. No stated cut-off is given here; in the data, active = GI50 up to about 1.1 µM and inactive = higher.

Tests used:
Experiment in all cases: inhibition of tumour cell growth, NCI panel, 48 h
MDA-MB-435 = system: MDA-MB-435
SK-MEL-5 = system: SK-MEL-5
LOX IMVI = system: LOX IMVI
ACHN = system: ACHN
SNB-75 = system: SNB-75
NCI-H460 = system: NCI-H460
PC-3 = system: PC-3
SK-OV-3 = system: SK-OV-3
UACC-62 = system: UACC-62
RPMI-8226 = system: RPMI-8226
MCF7 = system: MCF7
IGROV-1 = system: IGROV-1
UO-31 = system: UO-31
A498 = system: A498
NCI/ADR-RES = system: NCI/ADR-RES
T47D = system: T47D
HCT-116 = system: HCT-116
NCI-H522 = system: NCI-H522
DU-145 = system: DU-145
Malme-3M = system: Malme-3M

| Structure (SMILES) | GI50 (MDA-MB-435) | GI50 (SK-MEL-5) | GI50 (LOX IMVI) | GI50 (ACHN) | GI50 (SNB-75) | GI50 (NCI-H460) | GI50 (PC-3) | GI50 (SK-OV-3) | GI50 (UACC-62) | GI50 (RPMI-8226) | GI50 (MCF7) | GI50 (IGROV-1) | GI50 (UO-31) | GI50 (A498) | GI50 (NCI/ADR-RES) | GI50 (T47D) | GI50 (HCT-116) | GI50 (NCI-H522) | GI50 (DU-145) | GI50 (Malme-3M) |
| --- | --- | --- | --- | --- | --- | --- | --- | --- | --- | --- | --- | --- | --- | --- | --- | --- | --- | --- | --- | --- |
| [N-]=[N+]=C1C(=O)c2ccccc2-c2ccccc21 | 40.7 µM (inactive) | 15.7 µM (inactive) | 25.9 µM (inactive) | 38.6 µM (inactive) | 20 µM (inactive) | 32.1 µM (inactive) | 25.8 µM (inactive) | 39.5 µM (inactive) | 22.3 µM (inactive) | 26.9 µM (inactive) | 25.9 µM (inactive) | 33 µM (inactive) | 27.2 µM (inactive) | 16.3 µM (inactive) | 25.6 µM (inactive) | 28.3 µM (inactive) | 28.1 µM (inactive) | 24.4 µM (inactive) | 30.9 µM (inactive) |  |
| CC(=O)Nc1ccc(S(=O)(=O)/N=C2\C=CC(=O)c3ccccc32)cc1 | 1.84 µM (inactive) | 2.88 µM (inactive) | 2.04 µM (inactive) | 7.35 µM (inactive) | 5.4 µM (inactive) | 12.1 µM (inactive) | 3.28 µM (inactive) | 16.5 µM (inactive) | 5.51 µM (inactive) | 4.56 µM (inactive) | 5.01 µM (inactive) | 2.58 µM (inactive) | 7.48 µM (inactive) | 10.3 µM (inactive) | 5.9 µM (inactive) | 8.17 µM (inactive) | 5.24 µM (inactive) | 14.5 µM (inactive) | 7.4 µM (inactive) | 3.65 µM (inactive) |
| CC(=O)OC12c3ccccc3-c3ccccc3C1C1C(=O)N(C)C(=O)C12Cl (centres undefined) | > 10 µM (inactive) | > 10 µM (inactive) | > 10 µM (inactive) | > 10 µM (inactive) | > 10 µM (inactive) | > 10 µM (inactive) | > 10 µM (inactive) | > 10 µM (inactive) |  | > 10 µM (inactive) | > 10 µM (inactive) | > 10 µM (inactive) | > 10 µM (inactive) | > 10 µM (inactive) | > 10 µM (inactive) | > 10 µM (inactive) |  | > 10 µM (inactive) | > 10 µM (inactive) | > 10 µM (inactive) |
| COc1ccc2c(c1)C(=O)c1ccccc1C2 | 41.7 µM (inactive) | 49.9 µM (inactive) | 49.9 µM (inactive) | > 100 µM (inactive) | 26.5 µM (inactive) | 61.8 µM (inactive) | 29.2 µM (inactive) | 33.5 µM (inactive) | 51.8 µM (inactive) | 46.8 µM (inactive) | 64 µM (inactive) | 38.8 µM (inactive) | > 100 µM (inactive) | 29.7 µM (inactive) | 59.6 µM (inactive) | 19.7 µM (inactive) | 36 µM (inactive) | 47.4 µM (inactive) | 17.1 µM (inactive) |  |
| O=C(Nc1cnc(O)nc1O)C(Cl)Cl | > 100 µM (inactive) | > 100 µM (inactive) | > 100 µM (inactive) | > 100 µM (inactive) | > 100 µM (inactive) |  | > 100 µM (inactive) | > 100 µM (inactive) | > 100 µM (inactive) | > 100 µM (inactive) | > 100 µM (inactive) | > 100 µM (inactive) | > 100 µM (inactive) | > 100 µM (inactive) | > 100 µM (inactive) | > 100 µM (inactive) | > 100 µM (inactive) | > 100 µM (inactive) | > 100 µM (inactive) | > 100 µM (inactive) |
| O=C1N=C(SC2OC(CO)C(O)C(O)C2O)S/C1=C\c1ccccc1 (centres undefined) | > 100 µM (inactive) | > 100 µM (inactive) | > 100 µM (inactive) | > 100 µM (inactive) | > 100 µM (inactive) | > 100 µM (inactive) | > 100 µM (inactive) | > 100 µM (inactive) | > 100 µM (inactive) | > 100 µM (inactive) | > 100 µM (inactive) | > 100 µM (inactive) | > 100 µM (inactive) | > 100 µM (inactive) | > 100 µM (inactive) | > 100 µM (inactive) |  | > 100 µM (inactive) | > 100 µM (inactive) | > 100 µM (inactive) |
| CCN(CC)CCCNc1nc(=O)[nH]c(C)c1C(=O)Nc1c2ccccc2nc2ccccc12 | 5.21 µM (inactive) | 10.8 µM (inactive) | 8.43 µM (inactive) | 10.2 µM (inactive) | 10.1 µM (inactive) |  | 17.1 µM (inactive) | 10.8 µM (inactive) | 6.32 µM (inactive) | 5.9 µM (inactive) | 7.78 µM (inactive) | 6.85 µM (inactive) | 5.6 µM (inactive) | 5.22 µM (inactive) | 12.9 µM (inactive) | 10.7 µM (inactive) | 5.41 µM (inactive) | 3.63 µM (inactive) | 12.8 µM (inactive) | 7.87 µM (inactive) |
| COc1cc(/C=C/C(=O)OC2C(O)C3CC(OC(=O)c4cc(OC)c(OC)c(OC)c4)CC2N3C)cc(OC)c1OC (centres undefined) | 23.6 µM (inactive) | 16.5 µM (inactive) | 15.3 µM (inactive) | 21.9 µM (inactive) | 8.73 µM (inactive) | 21.8 µM (inactive) | 35.6 µM (inactive) | 21.8 µM (inactive) | > 50 µM (inactive) | 33 µM (inactive) | 23 µM (inactive) | 0.43 µM (active) | 10.4 µM (inactive) | 8.04 µM (inactive) | 13.7 µM (inactive) | 14.5 µM (inactive) | 20.7 µM (inactive) | 19.5 µM (inactive) | > 50 µM (inactive) |  |
| CC(=O)OC/C=C/Cn1nc(Br)c(=O)[nH]c1=O | > 100 µM (inactive) | > 100 µM (inactive) | > 100 µM (inactive) | > 100 µM (inactive) | > 100 µM (inactive) | > 100 µM (inactive) | > 100 µM (inactive) |  | > 100 µM (inactive) | > 100 µM (inactive) | > 100 µM (inactive) | > 100 µM (inactive) | > 100 µM (inactive) | > 100 µM (inactive) | > 100 µM (inactive) | > 100 µM (inactive) | > 100 µM (inactive) | > 100 µM (inactive) | > 100 µM (inactive) | > 100 µM (inactive) |
| O=c1c2cc3c(cc2[nH]c2ncccc12)OCO3 | > 10 µM (inactive) | > 10 µM (inactive) | > 10 µM (inactive) | > 10 µM (inactive) | > 10 µM (inactive) | > 10 µM (inactive) | > 10 µM (inactive) | > 10 µM (inactive) | > 10 µM (inactive) | > 10 µM (inactive) | > 10 µM (inactive) | > 10 µM (inactive) |  | > 10 µM (inactive) | > 10 µM (inactive) | > 10 µM (inactive) | > 10 µM (inactive) | > 10 µM (inactive) | > 10 µM (inactive) | > 10 µM (inactive) |
| COC(=O)C1CC23C=CCN4CC(C2C)C2(c5ccccc5NC12)C43 (centres undefined) | > 100 µM (inactive) | > 100 µM (inactive) | > 100 µM (inactive) | > 100 µM (inactive) | 87.7 µM (inactive) | > 100 µM (inactive) | > 100 µM (inactive) | > 100 µM (inactive) | > 100 µM (inactive) | > 100 µM (inactive) | > 100 µM (inactive) | > 100 µM (inactive) |  | > 100 µM (inactive) | > 100 µM (inactive) | > 100 µM (inactive) | > 100 µM (inactive) | > 100 µM (inactive) | > 100 µM (inactive) | > 100 µM (inactive) |
